Source: patent US20240115729A1, “COMPOSITIONS AND METHODS FOR TARGETED ANTIFIBROTIC THERAPY IN CHRONIC PANCREATITIS” (University of Virginia Patent Foundation, priority 2021, published 2024)
Where “and” joins values, the source holds several entries; their conditions need not be identical. Identical values can stand only once.

Assays:
[1] = tested on: caerulein-induced CP mice (inflamed pancreas) versus healthy mice; test: In vivo validation of individual phage clones: ex vivo IVIS fluorescence of organs after co-injection of targeting phage (VT680) and wild type M13Ke phage (VT750); parameters: species or system mouse (C57BL/6J); conditions: for CP-to-Healthy Ratio (fold change of specificity ratio): Pancreas; for specificity for CP over healthy pancreas: individual clones from Groups 2 and 3
Procedure: C57BL/6 J mice (6-12 week-old, female) were used for the in vivo phage screening. For chronic pancreatitis, caerulein (Bachem, Torrance, California, United States of America) was dissolved in sterile saline and administrated to mice twice a day, 8 hours apart for 14 consecutive days, at a concentration of 250 μg/kg body weight via intraperitoneal injection (Halbrook et al., 2017), as shown in FIG. 1A. During the 14-day course, intraperitoneal injections of 100 μg/kg buprenorphine were given every 3 days to minimize the induced pain. For healthy controls, c57BL/6 J mice were injected intraperitoneally with an equal volume of sterile saline following the same schedule as in the chronic pancreatitis models. […] Picrosirius red (Polysciences, Inc., Warrington, Pennsylvania, United States of America) was used to visualize collagen in paraffin-embedded pancreas sections (FIG. 1B).
Specificity of phage clones. After PHASTpep analysis and candidate clone selections, 18 candidate clones were grouped (4-5 clones per group, 4 groups total) based on sequence similarity using GibbsCluster Server 2.0 (Andreatta et al., 2017). by the Technical University of Denmark (FIG. 2). […] For each group, the fluorescently labeled candidate and WT phage were mixed and co-injected in CP and healthy mice (n=5) Phage accumulation was determined by measuring the ex vivo fluorescent intensity of the pancreas at 20 hours post-injection using the Fluorescent Molecular Tomography (FMT, PerkinElmer, Waltham, Massachusetts, United States of America) using the excitation and emission wavelength at 675 nm/720 nm for VT680 and 745 nm/800 nm for VT750. To account for variations of fluorescent labeling efficiency, the raw readouts of VT680 and VT750 were normalized to the dye-per-phage ratio (see Table 3 below).
The specificity ratio was calculated as % ID/g of the normalized VT680 divided by the % ID/g of the normalized VT750 (see Equation (1)). Quantifications are included in Table 4.
A similar procedure was applied to determine the specificity of individual phage clones in Groups 2 and 3. Candidate clones were labeled with VivioTag 680 (VT680, PerkinElmer, Waltham, MA) to match the detectable wavelength of the IVIS Spectrum Series (Perkin Elmer, Waltham, Massachusetts, United States of America). Fluorescent intensity was measured at 20 hours post-injection of candidate phage (VT680) and WT phage (VT750). Fold change of specificity ratio was calculated as the specificity ratio of CP mice divided by the specificity ratio of the healthy mouse (see Table 5).

[2] = tested on: collagen IIIa+ cells (ECM); test: Immunofluorescence colocalization (MCC) of VT680-labeled phage with cell marker in CP pancreas; assay type: in vivo, mouse; conditions: Col IIIa; CP pancreas sections
Source text: (§1) Immunofluorescence (IF). Post ex vivo imaging, mouse pancreata were submerged in Neg-50 Frozen Section Medium (Thermo Scientific, Waltham, Massachusetts, United States of America) and snap-frozen over liquid nitrogen vapor. The embedded tissues were cut into 5 μm sections using a cryostat (Leica Microsystems Inc., Buffalo Grove, Illinois, United States of America) for subsequent imaging with ZEISS LSM-880 Confocal Laser Scanning Microscope (Carl Zeiss Meditec, Inc., Jena, Germany) at the Advanced Microscopy Facility at the University of Virginia. Cell types of interest in the pancreatitis microenvironment were identified by immunohistochemistry using the following antibodies: rat anti-mouse CD31 at 1:200 dilution (endothelial markers; BD Biosciences, San Jose, California, United States of America), rat anti-mouse CD206 at 1:1000 dilution (M2 macrophage markers; Bio-Rad, Hercules, California, United States of America), rabbit anti-mouse cytokeratin 7 at 1:3000 dilution (CK-7, epithelial markers; Abcam, Cambridge, Massachusetts, United States of America), rabbit anti-mouse collagen IIIa at 1:200 dilution (ECM markers; Abcam, Cambridge, Massachusetts, United States of America), goat anti-mouse carboxypeptidase A1 at 1:200 dilution (CPA1, acini markers; R&D Systems, Inc., Minneapolis, Minnesota, United States of America), rat anti-mouse F4/80 at 1:500 (macrophage markers; Bio-Rad, Hercules, California, United States of America), and FITC-conjugated, mouse anti-mouse α-SMA at 1:200 dilution (MilliporeSigma, St. Louis, Missouri, United States of America). ALEXA FLUOR® 488 (Abcam, Cambridge, Massachusetts, United States of America) antibodies from appropriate species, including donkey anti-goat, donkey anti-rat, donkey anti-rabbit at 1:500 dilution, were used as secondary antibodies to locate the primary antibodies. IF-stained pancreatic sections were mounted with PROLONG™ Gold Antifade Mountant with DAPI (Thermo Fisher Scientific Inc, Waltham, Massachusetts, United States of America, United States of America) for nucleus visualization. IF images were taken on Ziess LSM 880 Confocal Microscope (ZIESS, Oberkochen, Germany) at the Advanced Microscopy Facility at the University of Virginia.
(§2) To identify the cell types that the CP targeting clones were binding, immunofluorescent analysis was performed on common cellular components in the CP microenvironment in the inflamed pancreas sections following in vivo validation of individual clones (FIG. 7). Mander's correlation coefficient (MCC) analysis was performed to determine colocalization of the targeting phage to the cell markers.

[3] = tested on: αSMA+ cells (activated PSC); test: as above; assay type: in vivo, mouse; conditions: CP pancreas sections
Source text: as §1, §2

[4] = tested on: CK7 (epithelium); test: as above; assay type: in vivo, mouse; conditions: CP pancreas sections
Source text: as §1, §2

[5] = tested on: CD31 (endothelium); test: as above; assay type: in vivo, mouse; conditions: CP pancreas sections
Source text: as §1, §2

[6] = tested on: F4/80+ cells (macrophages); test: as above; assay type: in vivo, mouse; conditions: CP pancreas sections
Source text: as §1, §2

[7] = tested on: CPA-1+ cells (acinar cells); test: as above; assay type: in vivo, mouse; conditions: CP pancreas sections
Source text: as §1, §2

[8] = tested on: cellular components in the CP microenvironment; test: Cellular selectivity of phage clones: one-way ANOVA and Tukey-Kramer comparison of MCC of all cell markers; assay type: in vivo, mouse; conditions: for Cell type the phage clone shows specificity to / Marker the phage clone shows specificity to: CP microenvironment; for Colocalized Markers (p < 0.05) / Corresponding Cellular Components: statistically significant selectivity for a single cellular component in CP
Source text: as §1
Statistical analysis. Statistical analysis of the data was performed by student t-test, one-way analysis of variance (ANOVA), and Tukey-Kramer test. All data presented are expressed as mean+standard error of at least three independent measurements. For all comparisons, p-values<0.05 were considered significant.
as §2

Substance | Radiant efficiency Targeting:M13Ke ([1]; CP mouse, liver) | Radiant efficiency Targeting:M13Ke ([1]; CP mouse, pancreas) | Radiant efficiency Targeting:M13Ke ([1]; CP mouse, spleen) | CP-to-Healthy Ratio ([1]; Liver) | CP-to-Healthy Ratio (fold change of specificity ratio) [1] | CP-to-Healthy Ratio ([1]; Spleen) | Radiant efficiency Targeting:M13Ke ([1]; healthy mouse, liver) | Radiant efficiency Targeting:M13Ke ([1]; healthy mouse, pancreas) | Radiant efficiency Targeting:M13Ke ([1]; healthy mouse, spleen) | specificity for CP over healthy pancreas [1] | Mean Manders' Correlation Coefficient (MCC), fraction of phage overlapping cell marker [2] | Mean Manders' Correlation Coefficient (MCC), fraction of phage overlapping cell marker [3] | Mean Manders' Correlation Coefficient (MCC), fraction of phage overlapping cell marker [4] | Mean Manders' Correlation Coefficient (MCC), fraction of phage overlapping cell marker [5] | Mean Manders' Correlation Coefficient (MCC), fraction of phage overlapping cell marker [6] | Mean Manders' Correlation Coefficient (MCC), fraction of phage overlapping cell marker [7] | Cell type the phage clone shows specificity to [8] | Marker the phage clone shows specificity to [8] | Colocalized Markers (p < 0.05) [8] | Corresponding Cellular Components [8]
HPYSPLR [7-mer peptide, candidate phage clone from Groups 2 and 3] | 0.59 | 6.42 | 3.10 | 0.744 | 1.544 | 1.138 | 0.80 | 4.16 | 2.73 | increased specificity for CP over healthy pancreas | 0.27 | 0.13 | 0.08 | 0.35 | 0.41 | 0.25 |  |  |  | 
HSGLNKQ (displayed on phage) [7-mer peptide, candidate phage clone selected by motif clustering analysis] | 0.63 | 6.07 | 3.42 | 1.254 | 0.611 | 1.157 | 0.50 | 9.93 | 2.96 |  |  |  |  |  |  |  |  |  |  | 
KTYVPTT (displayed on phage) | 0.61 | 11.90 | 3.05 | 1.161 | 1.362 | 0.890 | 0.53 | 8.74 | 3.43 | increased specificity for CP over healthy pancreas | 0.23 | 0.521±0.067 and 0.52 | 0.06 | 0.20 | 0.31 | 0.26 | aPSC | α-SMA^+ | α-SMA | aPSC
MDLSLKP (displayed on phage) | 0.72 | 10.85 | 2.70 | 1.370 | 1.875 | 1.156 | 0.52 | 5.79 | 2.34 | increased specificity for CP over healthy pancreas | 0.828±0.089 and 0.83 | 0.16 | 0.06 | 0.20 | 0.46 | 0.31 | ECM | Collagen | Collagen | ECM
SANITNL (displayed on phage) [7-mer peptide, candidate phage clone selected by replicability between libraries] | 0.74 | 4.02 | 4.60 | 1.287 | 0.943 | 1.518 | 0.58 | 4.27 | 3.03 |  |  |  |  |  |  |  |  |  |  | 
SLPLGPM (displayed on phage) [7-mer peptide, candidate phage clone from Groups 2 and 3] | 0.64 | 6.42 | 3.49 | 0.921 | 1.286 | 1.215 | 0.69 | 5.00 | 2.87 | increased specificity for CP over healthy pancreas | 0.23 | 0.15 | 0.06 | 0.25 | 0.49 | 0.35 |  |  |  | 
